# Laboratory results published in patent EP4212151B1, “STILBENE, FLAVONOL OR CURCUMIN COMPOUNDS FOR USE IN THE TREATMENT OF AGE-RELATED MACULAR DEGENERATION (AMD; ARMD)” (Knepper, Paul A., priority 2022, dated 2023).
# Values joined by “and” are separate entries in the source; they are usually repeats but may differ in a detail not shown here. Identical values can stand only once. Like-named read-outs stand apart in the source and are kept apart here.
# Tests used:
# [1] = system: superactivated platelets (SAPs); test: In-vitro flow cytometry platelet assay: superactivated platelets (SAP% of all platelets) after thrombin and convulxin; combination index by CompuSyn; assay type: cell-based; conditions: Homo sapiens; for IC50: individually (single agent), read-out: IC50 for the reduction of SAPs; for inhibition at 1 µM: single agent 1 µM; for inhibition at 1 µM / inhibition at 5 µM / inhibition at 10 µM / inhibition at 0.01 µM / inhibition at 0.1 µM: read-out: % change; for inhibition at 5 µM: single agent 5 µM; for inhibition at 10 µM: single agent 10 µM; for inhibition at 0.01 µM: single agent 0.01 µM; for inhibition at 0.1 µM: single agent 0.1 µM
# Text: Briefly, platelet-rich plasma (PRP) from patients with age-related macular degeneration (n = 9) are isolated from whole blood and challenged using dual agonists thrombin and convulxin (collagen substitute) to stimulate superactivated platelets (SAPs). SAPs are defined as positive for surface fibrinogen and negative for activated integrin αIIbβ3, whereas activated platelets are defined as negative for surface fibrinogen and positive for activated integrin αIIbβ3. Surface fibrinogen is detected by pre-treating platelets with biotinylated-fibrinogen (5 µg/mL) followed by staining with any common fluorophore conjugated to streptavidin. The streptavidin-fluorophore complex binds to the biotin-fibrinogen complex present on SAPs but not activated platelets due to the differing composition of charged surface proteins. Activated integrin αIIbβ3 - characteristic of activated platelets - is detected using the PAC-1 antibody conjugated to any compatible fluorophore. […] The effect of RQC on SAPs is determined by pre-treating diluted PRP samples with combinations of R, Q, and/or C for 5 minutes at 37°C followed by challenge with thrombin and convulxin for 5 minutes at 37°C. The samples are then stained with the fluorophore-conjugates and fixed in 3% formalin before analysis using a flow cytometer. SAP percentage is calculated as a percentage of all platelets. The effect size of RQC is determined by the change ion SAP percentage before and after treatment with RQC and is used as input to calculate drug synergy using the CompuSyn software developed by Chou, et al. Drug synergy, additivism, and antagonism are defined as a combination index (CI) score less than, equal to, or greater than 1, respectively. The level of drug synergy can be further stratified by quantile, tertile, or quartile in cases where numerous synergistic doses are compared.
# The average combination index values of low, medium, and high doses of RQC for the inhibition of SAPs in AMD subjects was determined. The Combination Index (CI) theorem derived by Chou-Talalay [Chou, 2010] was calculated for each combination drug treatment of R, Q, and C. The CI is useful in quantifying levels of synergism and antagonism. The theorem is based on the median-effect equation to provide a common link between a single entity and multiple entities. A CI value < 1 indicates synergism, a CI equal to 1 indicates additivity, and a CI > 1 indicates antagonism. RQC was very effective in low, medium, and high doses.
# R, Q, and C at three different dose levels each were tested in all possible combinations, resulting in 27 possible double and 27 possible triple combinations within each subject. The doses tested were R (1, 5, and 10 µM), Q (1, 5, and 10 µM), and C (0.01, 0.1, and 1 µM) and the effect was based on the inhibition of SAPs. To obtain the mean number of synergistic doses in each cohort, the average CI score for each dose combination was calculated within each cohort, producing a set of 27 double combination CI scores and 27 triple combination CI scores per cohort. Out of each set of 27 dose combinations, the number of CI scores under 0.8 (highly synergistic) was counted and reported here. For example, in control subjects 5 out of 27 possible double combinations were synergistic while 25 out of 27 possible triple combinations were synergistic based on the mean CI for each dose in the cohort.
# [2] = cited from earlier work; for dose found well tolerated, low or no toxicity: clinical trials, doses as high as; for maximum dose (highest dose evaluated in a repeated-dose clinical trial and found safe and tolerable): human, in vivo
# [3] = cited from earlier work; for Half-life: human, in vivo; for Bioavailability: oral
# Dry AMD Subjects [4] = test: Geographic atrophy area and growth rate in dry AMD subjects, Phase 1 study, 12 months; assay type: in vivo, human
# Description: The effect of RQC and curcumin on geographic atrophy growth was evaluated in a Phase 1 study (TABLE 5, below) TABLE 5.
# The expected untreated GA growth rate reported in the literature is 1.20 mm^2/year (or 0.18 mm/year adjusted for baseline lesion area). […] The decrease in GA growth rate was highly significant (p = 0.0004) compared with untreated samples [Yehoshua, et al., 2011] and remained highly significant when adjusted for differences in baseline lesion area (p = 0.0001). […]
# Dry AMD Subjects [5] = test: Drusen volume by OCT (manual segmentation, ImageJ) in dry AMD subjects, oral treatment for 18 months; assay type: in vivo, human; conditions: oral C 2660 mg/day or RQC 200/240/2660 mg/day; for Drusen Volume % Change: 18 months vs baseline; for Drusen Volume, 18 Months: after 18 months
# Text: As stated hereinabove, dry AMD is a common disease characterized by retinal pathology. A typical finding of dry AMD is the presence of drusen and/or geographic atrophy. TABLE 1 below depicts drusen volume at baseline and after 18 months according to drusen size in all participants (C or RQC). […] To compare the changes in drusen volume found in this study in subjects taking oral curcumin against what would be expected over the natural course of the disease, optical coherence tomography (OCT) scans were evaluated. OCT is a new retinal imaging technology which is useful to analyze drusen volume and geographic atrophy. Each subject was scanned 6 months before treatment. This allowed for the examination of the natural history of a subject's drusen progression compared to progression with treatment. Standard deviation (SD) is expressed in mm^3. Statistical significance was determined by Wilcoxon Rank Sum test. Drusen volume was measured by manual segmentation using ImageJ software. Drusen size was determined by the widest width of the drusen and expressed in µm. […]
# [6] = drusen ≥ 250 µm, listed as curcumin
smiles,measurement,setting,value
"O=c1c(O)c(-c2ccc(O)c(O)c2)oc2cc(O)cc(O)c12 [Quercetin, 2-(3,4-dihydroxyphenyl)-3,5,7-trihydroxychromen-4-one;dihydrate]",IC50,[1],31 µM
same,inhibition at 1 µM,[1]; AMD (GA) subject,6.7%
same,inhibition at 1 µM,[1]; control subject,36.9%
same,inhibition at 5 µM,[1]; AMD (GA) subject,43.9%
same,inhibition at 5 µM,[1]; control subject,38.2%
same,inhibition at 10 µM,[1]; AMD (GA) subject,27.3%
same,inhibition at 10 µM,[1]; control subject,24.7%
same,"dose found well tolerated, low or no toxicity",[2],≤ 5 g per day
same,maximum dose (highest dose evaluated in a repeated-dose clinical trial and found safe and tolerable),[2],5000 mg/day
"Oc1ccc(/C=C/c2cc(O)cc(O)c2)cc1 [Resveratrol, 5-[(1E)2-(4-hydroxyphenyl)ethenyl]-1,3-benzenediol]",IC50,[1],36 µM
same,inhibition at 1 µM,[1]; AMD (GA) subject,8.6%
same,inhibition at 1 µM,[1]; control subject,19.6%
same,inhibition at 5 µM,[1]; AMD (GA) subject,17.1%
same,inhibition at 5 µM,[1]; control subject,24.6%
same,inhibition at 10 µM,[1]; AMD (GA) subject,18.6%
same,inhibition at 10 µM,[1]; control subject,30.5%
same,Half-life,[3],2 to 5 h
same,Bioavailability,[3],0.1-0.4%
same,"dose found well tolerated, low or no toxicity",[2],≤ 5 g per day
same,maximum dose (highest dose evaluated in a repeated-dose clinical trial and found safe and tolerable),[2],5000 mg/day
"COc1cc(/C=C/C(=O)CC(=O)/C=C/c2ccc(O)c(OC)c2)ccc1O [Curcumin, (1E,6E)-1,7-bis(4-Hydroxy-3-methoxyphenyl)-1,6-heptadiene-3,5-dione]",IC50,[1],3.6 µM
same,inhibition at 0.01 µM,[1]; AMD (GA) subject,11.5%
same,inhibition at 0.01 µM,[1]; control subject,24.1%
same,inhibition at 0.1 µM,[1]; AMD (GA) subject,18.4%
same,inhibition at 0.1 µM,[1]; control subject,36.8%
same,inhibition at 1 µM,[1]; AMD (GA) subject,37%
same,inhibition at 1 µM,[1]; control subject,33.7%
same,Half-life,[3],5 to 6 h
same,Bioavailability,[3],0.01-0.1%
same,Cmax,"[3]; read-out: maximum plasma concentration, two capsules (1000 mg each)",600 to 1000 nM
same,maximum dose (highest dose evaluated in a repeated-dose clinical trial and found safe and tolerable),[2],12000 mg/day
same,dose safe and well tolerated,"[2]; review of clinical trials, doses up to, only minimal, mostly gastrointestinal side effects",8 to 12 g/day
same,Growth Rate (mm^2/y),"Dry AMD Subjects [4]; GA, mean of arm, 12 months of treatment",0.68 ± 0.79 mm^2/y
same,Growth Rate (mm^2/y),"Dry AMD Subjects [4]; GA, mean of arm, 12 months of treatment, listed as curcumin",0.68 mm^2/y
same,Baseline Area (mm^2),"Dry AMD Subjects [4]; GA, mean of arm, baseline",1.08 ± 1.10 mm^2
same,Growth Rate (mm/y),"Dry AMD Subjects [4]; GA, mean of arm, square root transformed (adjusted for baseline lesion area), 12 months",0.21 ± 0.25 mm/y
same,Growth Rate (mm/y),"Dry AMD Subjects [4]; GA, mean of arm, square root transformed (adjusted for baseline lesion area), 12 months, listed as curcumin",0.21 mm/y
same,"Area (mm^2), Baseline","Dry AMD Subjects [4]; geographic atrophy, individual eyes (subject c0, eye c2, GA category c7), baseline, listed as C",1.794 mm^2 and 2.254 mm^2 and 0.147 mm^2 and 0.134 mm^2
same,Growth Rate (mm^2/y),"Dry AMD Subjects [4]; geographic atrophy, individual eyes, 12 months, listed as C",1.462 mm^2/y and 1.258 mm^2/y and -0.037 mm^2/y and 0.037 mm^2/y
same,"Area (mm^2), 12 mo","Dry AMD Subjects [4]; geographic atrophy, individual eyes, after 12 months of treatment, listed as C",3.256 mm^2 and 3.512 mm^2 and 0.110 mm^2 and 0.171 mm^2
same,Growth Rate (mm/y),"Dry AMD Subjects [4]; geographic atrophy, individual eyes, square root transformed, 12 months, listed as C",0.373 mm/y and 0.465 mm/y and -0.046 mm/y and 0.055 mm/y
same,Growth Rate (mm^2/y),"Dry AMD Subjects [4]; nascent GA (nGA), mean of arm, 12 months of treatment",0.00 ± 0.05 mm^2/y
same,Growth Rate (mm^2/y),"Dry AMD Subjects [4]; nascent GA (nGA), mean of arm, 12 months of treatment, listed as curcumin",0.005 mm^2/y
same,Baseline Area (mm^2),"Dry AMD Subjects [4]; nascent GA (nGA), mean of arm, baseline",0.14 ± 0.01 mm^2
same,Growth Rate (mm/y),"Dry AMD Subjects [4]; nascent GA (nGA), mean of arm, square root transformed (adjusted), 12 months",0.01 ± 0.07 mm/y
same,Growth Rate (mm/y),"Dry AMD Subjects [4]; nascent GA (nGA), mean of arm, square root transformed (adjusted), 12 months, listed as curcumin",0.01 mm/y
same,Drusen Volume % Change,Dry AMD Subjects [5]; All drusen,-13.0%
same,"Drusen Volume, 18 Months",Dry AMD Subjects [5]; All drusen,8.70 mm^3
same,"Drusen Volume, 18 Months","Dry AMD Subjects [5]; All drusen, listed as curcumin",8.7 (± 1.6) mm^3
same,"Drusen Volume, Baseline",Dry AMD Subjects [5]; All drusen,10.1 mm^3
same,"Drusen Volume, Baseline","Dry AMD Subjects [5]; All drusen, listed as curcumin",10.1 (± 1.60) mm^3
same,Drusen Volume % Change,Dry AMD Subjects [5]; drusen 63-124 µm,0.0%
same,"Drusen Volume, 18 Months",Dry AMD Subjects [5]; drusen 63-124 µm,0.08 mm^3
same,"Drusen Volume, Baseline",Dry AMD Subjects [5]; drusen 63-124 µm,0.08 mm^3
same,Drusen Volume % Change,Dry AMD Subjects [5]; drusen 125-249 µm,-1.6%
same,"Drusen Volume, 18 Months",Dry AMD Subjects [5]; drusen 125-249 µm,3.70 mm^3
same,"Drusen Volume, Baseline",Dry AMD Subjects [5]; drusen 125-249 µm,3.80 mm^3
same,Drusen Volume % Change,Dry AMD Subjects [5]; drusen ≥ 250 µm,-20.0%
same,Drusen Volume % Change,Dry AMD Subjects [5]; [6],-30.0% and -20.0%
same,"Drusen Volume, 18 Months",Dry AMD Subjects [5]; drusen ≥ 250 µm,6.00 mm^3
same,"Drusen Volume, 18 Months",Dry AMD Subjects [5]; [6],6.00 (± 1.30) mm^3
same,"Drusen Volume, Baseline",Dry AMD Subjects [5]; drusen ≥ 250 µm,7.50 mm^3
same,"Drusen Volume, Baseline",Dry AMD Subjects [5]; [6],0.75 (± 1.30) mm^3
